# Measured values reported in patent US20060084684A1, “Topically applicable pharmaceutical preparation” (Altana Pharma AG, priority 2002, published 2006).
# Key:
# [1] = Solubility in water; assay type: physicochemical; conditions: at 21° C.
# Excerpt: For treating disorders of the skin it Is desirable to provide the active pharmaceutical ingredient in a pharmaceutical preparation suitable for topical application.
# [2] = Kinetic parameters after oral administration (comparison); assay type: in vivo, rat
# Description: Comparison with kinetic parameters after oral administration of 1 mg/kg: […]
structure (smiles),measurement,setting,value
"O=C(Nc1c(Cl)cncc1Cl)c1ccc(OC(F)F)c(OCC2CC2)c1 [roflumilast, N-(3,5-dichloropyrid-4-yl)-3-cyclopropylmethoxy-4-difluoromethoxybenzamide]",solubility,[1],0.53 µg/mL
same,excretion with the urine,[2]; oral administration,18.4 % of the dose
same,AUC(0-24 h),[2]; oral administration of 1 mg/kg,3.10 mg equiv./l×h
same,Cmax,[2]; oral administration of 1 mg/kg,0.225 mg equiv./l
